According to ChEMBL document CHEMBL4052781, “Discovery and structure-activity relationship of auriculatone: A potent hepatoprotective agent against acetaminophen-induced liver injury” (Bioorg Med Chem Lett, 2017):
Activity calls are given as the source filed them. No cut-off for these calls is given here.

How the values were obtained:
[1] = test system: L02; experiment: Hepatoprotective activity against APAP-induced cell injury in human HL-7702 cells assessed as increase in survival rate at 0.1 uM pre-incubated for 24 hrs before APAP addition and measured 6 hrs post APAP challenge by MTT assay; type: functional, cell-based
[2] = test system: L02; experiment: Hepatoprotective activity against APAP-induced cell injury in human HL-7702 cells assessed as increase in survival rate at 10 uM pre-incubated for 24 hrs before APAP addition and measured 6 hrs post APAP challenge by MTT assay; type: functional, cell-based
[3] = test system: L02; experiment: Hepatoprotective activity against APAP-induced cell injury in human HL-7702 cells assessed as survival rate at 10 uM pre-incubated for 24 hrs before APAP addition and measured 6 hrs post APAP challenge by MTT assay (reference value: 59.13%); type: functional; details: read-out: Survival
[4] = test system: L02; experiment: Hepatoprotective activity against APAP-induced cell injury in human HL-7702 cells assessed as increase in survival rate at 1 uM pre-incubated for 24 hrs before APAP addition and measured 6 hrs post APAP challenge by MTT assay; type: functional, cell-based
[5] = test system: L02; experiment: Hepatoprotective activity against APAP-induced cell injury in human HL-7702 cells assessed as survival rate at 5 uM pre-incubated for 24 hrs before APAP addition and measured 6 hrs post APAP challenge by MTT assay (reference value: 60.49 +/- 0.28%); type: functional; details: read-out: Survival
[6] = test system: L02; experiment: Hepatoprotective activity against APAP-induced cell injury in human HL-7702 cells assessed as survival rate at 10 uM pre-incubated for 24 hrs before APAP addition and measured 6 hrs post APAP challenge by MTT assay (reference value: 60.49 +/- 0.28%); type: functional; details: read-out: Survival
[7] = molecular target: CYP3A4 (Homo sapiens, UniProt P08684); experiment: Inhibition of CYP3A4 in human HL-7702 cells assessed as assessed as remaining enzyme activity by measuring reduction in metabolic conversion of nifedipine to dehydronifedipine at 10 uM by LC-MS/MS method; type: ADME, cell-based; details: probe nifedipine, read-out: Activity
[8] = molecular target: Cytochrome P450 3A4 (Homo sapiens, UniProt P08684); experiment: Inhibition of CYP3A4 in human HL-7702 cells assessed as reduction in metabolic conversion of nifedipine to dehydronifedipine by LC-MS/MS method; type: ADME, cell-based
[9] = test system: L02; experiment: Hepatoprotective activity against APAP-induced cell injury in human HL-7702 cells assessed as survival rate at 0.625 uM pre-incubated for 24 hrs before APAP addition and measured 6 hrs post APAP challenge by MTT assay (reference value: 60.49 +/- 0.28%); type: functional; details: read-out: Survival
[10] = test system: L02; experiment: Effect on APAP-induced depletion of GSH levels in human HL-7702 cells assessed as GSH level at 10 uM by colorimetric method (reference value: 59.68 +/- 1.16 au); type: functional
[11] = test system: L02; experiment: Hepatoprotective activity against APAP-induced cell injury in human HL-7702 cells assessed as survival rate at 2.5 uM pre-incubated for 24 hrs before APAP addition and measured 6 hrs post APAP challenge by MTT assay (reference value: 60.49 +/- 0.28%); type: functional; details: read-out: Survival
[12] = test system: L02; experiment: Effect on APAP-induced depletion of GSH levels in human HL-7702 cells assessed as GSH level at 0.1 uM by colorimetric method (reference value: 59.68 +/- 1.16 au); type: functional
[13] = test system: L02; experiment: Effect on APAP-induced depletion of GSH levels in human HL-7702 cells assessed as GSH level at 1 uM by colorimetric method (reference value: 59.68 +/- 1.16 au); type: functional
[14] = test system: L02; experiment: Hepatoprotective activity against APAP-induced cell injury in human HL-7702 cells assessed as survival rate at 1.25 uM pre-incubated for 24 hrs before APAP addition and measured 6 hrs post APAP challenge by MTT assay (reference value: 60.49 +/- 0.28%); type: functional; details: read-out: Survival

Sequence of Cytochrome P450 3A4 (P08684 whole entry): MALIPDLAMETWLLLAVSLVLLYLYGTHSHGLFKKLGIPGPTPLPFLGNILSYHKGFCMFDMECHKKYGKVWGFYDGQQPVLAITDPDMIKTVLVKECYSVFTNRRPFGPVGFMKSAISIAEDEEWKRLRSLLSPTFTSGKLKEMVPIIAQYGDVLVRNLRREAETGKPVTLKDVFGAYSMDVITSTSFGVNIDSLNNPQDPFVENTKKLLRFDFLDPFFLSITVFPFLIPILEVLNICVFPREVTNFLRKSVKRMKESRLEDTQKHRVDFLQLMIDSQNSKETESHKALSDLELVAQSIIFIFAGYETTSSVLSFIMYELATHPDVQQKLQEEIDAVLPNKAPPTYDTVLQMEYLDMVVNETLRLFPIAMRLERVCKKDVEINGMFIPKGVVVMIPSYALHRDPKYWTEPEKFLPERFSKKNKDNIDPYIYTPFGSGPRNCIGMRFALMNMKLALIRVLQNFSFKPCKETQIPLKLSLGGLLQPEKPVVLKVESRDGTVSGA
Sequence of CYP3A4 (P08684 whole entry): as above

| Compound | Activity [1] | Activity [2] | viability at 10 µM [3] [%] | also measured |
| --- | --- | --- | --- | --- |
| CC1(C)CC[C@H]2[C@H](O)C[C@]3(C)C(=CC[C@@H]4[C@@]5(C)CC[C@H](O)C(C)(C)[C@@H]5CC[C@]43C)[C@@H]2C1 | inactive | Active | 65.5 | – |
| CC1(C)CC[C@]2(C(=O)O)[C@H](O)C[C@]3(C)C(=CC[C@@H]4[C@@]5(C)CC[C@H](O)C(C)(C)[C@@H]5CC[C@]43C)[C@@H]2C1 | – | Active | – | – |
| CC1(C)CC[C@H]2C(=O)C[C@]3(C)C(=CC[C@@H]4[C@@]5(C)CCC(=O)C(C)(C)[C@@H]5CC[C@]43C)[C@@H]2C1 | inactive | Active | 71.2 | Activity [4]: Active |
| CC1(C)CC[C@H]2C(=O)C[C@]3(C)C(=CC[C@@H]4[C@@]5(C)CC[C@H](O)C(C)(C)[C@@H]5CC[C@]43C)[C@@H]2C1 | inactive | – | 78.3 to 80 | viability at 5 µM [5]: 76%; viability at 10 µM [6]: 80.1%; activity at 10 µM [7]: 66%; Activity [8]: Dose-dependent effect; viability at 0.625 µM [9]: 66.8%; Activity [10]: 54.37 a.u.; viability at 2.5 µM [11]: 74.5%; Activity [12]: 55.93 a.u.; Activity [13]: 55.62 a.u.; viability at 1.25 µM [14]: 68.6%; Activity [4]: Active |
| CC1(C)CC[C@H]2[C@@H](O)C[C@]3(C)C(=CC[C@@H]4[C@@]5(C)CC[C@H](O)C(C)(C)[C@@H]5CC[C@]43C)[C@@H]2C1 | inactive | Active | 62.9 | – |
| CC1(C)CC[C@H]2CC[C@]3(C)C(=CC[C@@H]4[C@@]5(C)CC[C@H](O)C(C)(C)[C@@H]5CC[C@]43C)[C@@H]2C1 | inactive | Active | 71.6 | Activity [4]: Active |
| CC1(C)CC[C@]2(CO)CC[C@]3(C)C(=CC[C@@H]4[C@@]5(C)CC[C@H](O)C(C)(C)[C@@H]5CC[C@]43C)[C@@H]2C1 | – | Active | – | – |
| CC1(C)CC[C@]2(C(=O)O)CC[C@]3(C)C(=CC[C@@H]4[C@@]5(C)CC[C@H](O)C(C)(C)[C@@H]5CC[C@]43C)[C@@H]2C1 [OLEANOLIC_ACID] | – | – | 68.5 | – |
| CC1(C)CC[C@H]2C(=O)C[C@]3(C)[C@@]4(O[C@@H]4C[C@@H]4[C@@]5(C)CC[C@H](O)C(C)(C)[C@@H]5CC[C@]43C)[C@@H]2C1 | inactive | Active | 65.7 | – |
| CC1(C)CC[C@]2(C(=O)O)CC[C@]3(C)C(=CC(=O)[C@@H]4[C@@]5(C)CC[C@H](O)C(C)(C)[C@@H]5CC[C@]43C)[C@@H]2C1 | – | Active | – | – |
| CC1(C)CC[C@]2(C(=O)O)CC[C@]3(C)C(=C2C1)C=C[C@@H]1[C@@]2(C)CC[C@H](O)C(C)(C)[C@@H]2CC[C@]13C | – | Active | – | – |
| CC1(C)CC[C@]2(C(=O)O)CC[C@]3(C)C(=CC=C4[C@@]5(C)CC[C@H](O)C(C)(C)[C@@H]5CC[C@]43C)[C@@H]2C1 | – | Active | – | – |
| CC1(C)CC[C@]2(C(=O)O)CC[C@]3(C)C(=CC[C@@H]4[C@@]5(C)CCC(=O)C(C)(C)[C@@H]5CC[C@]43C)[C@@H]2C1 | – | Active | – | – |
| CC1(C)CC[C@@H]2C(=O)C[C@]3(C)C(=CC[C@@H]4[C@@]5(C)CC[C@H](O)C(C)(C)[C@@H]5CC[C@]43C)[C@@H]2C1 | – | – | 76 to 80 | – |
| CC(=O)O[C@H]1CC[C@]2(C)[C@H]3CC=C4[C@@H]5CC(C)(C)CC[C@H]5C(=O)C[C@@]4(C)[C@]3(C)CC[C@H]2C1(C)C | inactive | Active | 67.1 | – |
| CC1(C)CC[C@@]23CC[C@@]4(C)[C@]5(C)CC[C@H]6C(C)(C)[C@@H](O)CC[C@]6(C)C5=CC(=O)[C@]4(OC2=O)[C@@H]3C1 | – | Active | – | – |
| CC(=O)N[C@@H](CS)C(=O)O [ACETYLCYSTEINE] | – | Active | – | viability at 10 µM [6]: 82.3%; Activity [10]: 102.49 a.u. |
